Assay results published in PMC7757078, “Comparative in vitro analysis of inhibition of rhinovirus and influenza virus replication by mucoactive secretolytic agents and plant extracts” (BMC Complementary Medicine and Therapies, 2020).
Where a name gives a salt, the structure may show the parent alone. Read-outs that look alike come from different tables or passages of the source. Marks after values point to notes of the source that are not given here.

Tests used:
HeLa Ohio cells = test: Cytotoxicity determination in HeLa Ohio cells (crystal violet, 72 h); assay type: cell-based, human; details: for 50% Cytotoxic concentration in HeLa cells, Mean: 72 h
Experimental: HeLa Ohio and MDCK cells were seeded at 1.6 × 10^4 and 2.3 × 10^4 cells/well in 100 μL growth medium in 96 well flat-bottomed microtiter plates, respectively. The cytotoxicity of the test compounds and extracts was determined on two-day-old confluent cell monolayers grown in the internal 60 wells of a microtiter plate (5% carbon dioxide, 37 °C). After removal of the growth medium, 50 μL of test medium and eight half-log dilutions of the reference compounds pleconaril or zanamivir, or eight half-log dilutions of test items in test medium (each concentration in duplicates) were added. The concentration range of reference compounds applied to cytotoxicity assays was 0.0316–100 μM. […] Six cell control wells were incubated with 100 μL test medium. After 72 h of incubation at 37 °C in 5% carbon dioxide atmosphere, the Dynex Immuno Assay System (Guernsey, UK), developed for automated ELISA techniques, was applied to gently wash, stain, measure, and analyze the viability of the cell monolayers based on optical density determination. After aspiration of supernatant, cell monolayers were washed three times with 300 μL physiological phosphate-buffered saline to remove death cells. The remaining cells were fixed and stained with 50 μL of 0.07% crystal violet (w/v), 20% ethanol, 3% formalin solution in water for 10 min. Six washings with 300 μL of water followed to remove excess stain. Before measuring the optical density, we solubilized the crystal violet by adding 100 μL lysis buffer (0.898 g of sodium citrate and 1.25 mL of 1 N HCl in 98.05 mL 47.5% ethanol) for 20 min. The absorbances were red at two wavelengths (550 and 690 nm). Cell viability in a well was defined as the percentage of the mean value of optical density resulting from the six cell controls, which was set 100% cell viability. The inhibitor concentration that reduces the mean value of optical density determined for cell controls by half is called 50% cytotoxic concentration (CC50). A minimum of three independent experiments were performed.

rhinovirus B14 [1] = test: CPE inhibitory assay with rhinovirus B14 in HeLa Ohio cells; assay type: cell-based; details: for CPE inhibition at non-cytotoxic concentrations: 0.0316–100 μM
[2] = test system: influenza virus A/Jena/8178/09; details: for CPE inhibition at non-cytotoxic concentrations: 0.0316–100 μM; for CPE inhibition at non-cytotoxic concentrations / Effect on influenza virus A/Jena/8178/09-induced CPE (in words): MDCK cells; for Effect on influenza virus A/Jena/8178/09-induced CPE (in words): non-cytotoxic concentrations
[3] = test system: influenza virus A/Hong Kong/68; details: for CPE inhibition at non-cytotoxic concentrations: 0.0316–100 μM; for Effect on influenza virus A/Hong Kong/68-induced CPE (in words): non-cytotoxic concentrations
rhinovirus B14 [4] = details: 3-day pretreatment of primary human tracheal epithelial cells; cited from earlier work
rhinovirus A2 = test: CPE inhibitory assay with rhinovirus A2 in HeLa Ohio cells; details: for CPE inhibition at non-cytotoxic concentrations: 0.0316–100 μM, HeLa Ohio cells
[5] = following the application of 600 mg; cited from earlier work
[6] = test system: rhinovirus (stored under rhinovirus A2; the sentence does not specify which rhinovirus); test: in vitro; details: human
[7] = test system: influenza virus A/Jena/8178/09; test: Hemagglutination inhibition assay with human erythrocytes; design: species or system influenza A virus (H1N1pdm09); details: 4 hemagglutination units, maximum test concentration 1 μM
Experimental: (§1) The negative control (no hemagglutination) consists only 50 μL phosphate-buffered saline (n = 8). […] We added 50 μL of a 1% human erythrocytes solution to each well of the microplate. After a two-hour incubation at 4 °C, we recorded the lowest compound concentration that induces hemagglutination or inhibits virus-mediated hemagglutination (minimum hemagglutination or hemagglutination inhibitory concentration, respectively).

human erythrocytes = test: Hemagglutination by test item in the absence of virus; details: maximum test concentration 1 μM
Experimental: as §1

viral neuraminidase = details: 37 °C for 24 h
Experimental: Thereafter, we incubated the assays at 37 °C for further 24 h allowing viral neuraminidase activation [43]. The activated viral neuraminidase abrogates the virus-mediated hemagglutination in absence of inhibitors (hemagglutination control) or in the presence of ineffective inhibitor concentrations. Neuraminidase inhibitors prevent this abrogation of virus-mediated hemagglutination.

[8] = test system: influenza virus A/Jena/8178/09; test: organism not typed; details: MDCK, read-out: 50% Inhibitory concentration against Influenza A viruses Jena/8178, Mean
[9] = test system: influenza virus A/Hong Kong/68; test: organism not typed; details: MDCK, read-out: 50% Inhibitory concentration against Influenza A viruses HK/68, Mean
[10] = test system: influenza virus A/Hong Kong/68; test: Time-of-addition plaque-reduction assay in MDCK cells; details: pelargonium extract 50 μg/mL, zanamivir 1 μM

Nc1c(Br)cc(Br)cc1CN[C@H]1CC[C@H](O)CC1 [Ambroxol, ambroxol]
50% Cytotoxic concentration in HeLa cells, Mean (HeLa Ohio cells; HeLa Ohio cells): 61.24 µM | 50% Cytotoxic concentration in HeLa cells, Mean (HeLa Ohio cells; HeLa Ohio cells, listed as ambroxol): 51.85 µM | CPE inhibition at non-cytotoxic concentrations (rhinovirus B14 [1]): < 50% | 50% Cytotoxic concentration in MDCK cells, Mean (MDCK cells; MDCK cells, 72 h): > 100^a μM | CPE inhibition at non-cytotoxic concentrations [2]: less than 50% | Effect on influenza virus A/Jena/8178/09-induced CPE (in words) [2]: did not show any effect | CPE inhibition at non-cytotoxic concentrations ([3]; MDCK cells): less than 50% | Effect on influenza virus A/Hong Kong/68-induced CPE (in words) ([3]; MDCK cells): did not show any effect | Concentration reducing the titer of rhinovirus B14 in the supernatant (rhinovirus B14 [4]): at least 0.1 μM | CPE inhibition at non-cytotoxic concentrations (rhinovirus A2): < 50%

CN(Cc1cc(Br)cc(Br)c1N)C1CCCCC1 [Bromhexine, bromhexine hydrochloride]
50% Cytotoxic concentration in HeLa cells, Mean (HeLa Ohio cells; HeLa Ohio cells): 51.85 µM | 50% Cytotoxic concentration in HeLa cells, Mean (HeLa Ohio cells; HeLa Ohio cells, listed as bromhexine): 61.24 µM | CPE inhibition at non-cytotoxic concentrations (rhinovirus B14 [1]): < 50% | Cytotoxic concentration in MDCK cells (MDCK cells; MDCK cells): 100 µM | 50% Cytotoxic concentration in MDCK cells, Mean (MDCK cells; MDCK cells, 72 h): 51.29 µM | CPE inhibition at non-cytotoxic concentrations [2]: less than 50% | CPE inhibition at non-cytotoxic concentrations ([3]; MDCK cells): less than 50% | Reduction of influenza virus A/Hong Kong/68-induced CPE ([3]; at 31.6 μM, MDCK cells): 30% | CPE inhibition at non-cytotoxic concentrations (rhinovirus A2): < 50%

CC(=O)N[C@@H](CS)C(=O)O [N-acetylcysteine]
50% Cytotoxic concentration in HeLa cells, Mean (HeLa Ohio cells; HeLa Ohio cells): > 100^a μM | Cytotoxicity in HeLa Ohio cells (in words) (HeLa Ohio cells; tested concentration range): non-cytotoxic | 50% Cytotoxic concentration in MDCK cells, Mean (MDCK cells): > 100^a μM | CPE inhibition at non-cytotoxic concentrations [2]: less than 50% | Effect on influenza virus A/Jena/8178/09-induced CPE (in words) [2]: did not show any effect | CPE inhibition at non-cytotoxic concentrations ([3]; MDCK cells): less than 50% | Effect on influenza virus A/Hong Kong/68-induced CPE (in words) ([3]; MDCK cells): did not show any effect | Maximal plasma concentration [5]: about 16 μM

Cc1cc(CCCOc2c(C)cc(-c3noc(C(F)(F)F)n3)cc2C)on1 [Pleconaril, pleconaril]
Concentration above which a marked dose-dependent cytotoxic effect was seen (HeLa Ohio cells; HeLa Ohio cells): higher than 10 μM | 50% Cytotoxic concentration in HeLa cells, Mean (HeLa Ohio cells; HeLa Ohio cells): 28.75 µM | IC50 (rhinovirus B14 [1]; n.a. = not active up to the maximum non-cytotoxic concentration, read-out: 50% Inhibitory concentration against Rhinoviruses B14, Mean): 25 nM | selectivity ratio [6]: > 3500 | IC50 (rhinovirus A2; HeLa, read-out: 50% Inhibitory concentration against Rhinoviruses A2, Mean): 8 nM

CC(=O)N[C@H]1[C@H]([C@H](O)[C@H](O)CO)OC(C(=O)O)=C[C@@H]1N=C(N)N [Zanamivir, zanamivir]
Inhibition of virus-mediated hemagglutination (in words) [7]: neither mediated nor inhibited | Induction of hemagglutination (in words) (human erythrocytes): neither mediated nor inhibited | 50% Cytotoxic concentration in MDCK cells, Mean (MDCK cells; MDCK cells, 72 h): > 100^a μM | Cytotoxicity in MDCK cells (in words) (MDCK cells; tested concentrations): well tolerated | Selectivity index against Influenza A viruses Jena/8178 [2]: > 14,285 | Selectivity index against Influenza A viruses HK/68 [3]: > 12,500 | Minimal neuraminidase inhibitory concentration (viral neuraminidase): 0.03 µM | IC50 [8]: 7 nM | IC50 [9]: 8 nM | Plaque production, treatment during adsorption ([10]; 4 °C for 2 h): did not prevent | Plaque production, pre-treatment of cells ([10]; 1 h at 37 °C before infection): did not prevent | Plaque production, pre-treatment of virus ([10]; 1 h at 37 °C before infection): did not prevent | Plaque production, treatment after adsorption ([10]; in agar overlay for 72 h): completely blocked | Plaque production, treatment during and after adsorption [10]: completely blocked
